The values that follow come from ChEMBL document CHEMBL1138531, “Pharmacokinetics of penicillin G in infants with a gestational age of less than 32 weeks” (Antimicrob Agents Chemother, 2007).

Type in all cases: ADME, organism-based
Data set [1] is described as follows: Volume of distribution in neonates. The conditions noted are these: human, in vivo.
For data set [2], the system named is Homo sapiens. Kind of data set: Apparent peripheral volume of distribution in preterm neonates with septicemia or invasive infections with gestational age of less than 32 weeks at 50000 U/kg, iv administered every 12 hrs. The conditions noted are these: in vivo.
The nature of data set [3]: Half life in iv dosed neonates with gestational age of 27 to 40 weeks. As to conditions: human, in vivo.
Data set [4] can be described thus: Elimination half life in preterm neonates with septicemia or invasive infections with gestational age of less than 32 weeks at 50000 U/kg, iv administered every 12 hrs. The conditions noted are these: human, in vivo, read-out: beta t1/2 (converted).
A short description of data set [5]: Volume of distribution in iv dosed neonates with gestational age of 27 to 40 weeks. The conditions noted are these: human, in vivo.
Data set [6] relates to Homo sapiens. Nature of the data set: Intercompartmental clearance in preterm neonates with septicemia or invasive infections with gestational age of less than 32 weeks at 50000 U/kg, iv administered every 12 hrs. The conditions noted are these: in vivo.
Data set [7] in a line: Clearance in iv dosed neonates with gestational age of 27 to 40 weeks. As to conditions: human, in vivo.
The nature of data set [8]: Volume of distribution at steady state in preterm neonates with septicemia or invasive infections with gestational age of less than 32 weeks at 50000 U/kg, iv administered every 12 hrs. As to conditions: human, in vivo, read-out: Vdss.
The nature of data set [9]: Volume of distribution in central compartment in preterm neonates with septicemia or invasive infections with gestational age of less than 32 weeks at 50000 U/kg, iv administered every 12 hrs. As to conditions: human, in vivo, read-out: Vc.
Data set [10] in a line: Clearance in preterm neonates with septicemia or invasive infections with gestational age of less than 32 weeks at 50000 U/kg, iv administered every 12 hrs. The conditions noted are these: human, in vivo.

Molecules are shown by their SMILES.

Take `CC1(C)S[C@@H]2[C@H](NC(=O)[C@H](N)c3ccc(O)cc3)C(=O)N2[C@H]1C(=O)O` [AMOXICILLIN]: the Vd in [1] was determined as 0.41 L/kg.
For orientation: clearance means the volume of plasma or blood freed of the substance per unit of time. The low end stands for a low capacity for elimination, the high end for a high capacity for elimination. `CC1(C)S[C@@H]2[C@H](NC(=O)Cc3ccccc3)C(=O)N2[C@H]1C(=O)O` [PENICILLIN G]: in data set [2], the Vp/F was found to be 0.152 L. The half-life in [3] was 3.8 h; in [4], 3.9 h. The Vd was 0.61 L/kg in [5], 0.54 L in data set [8], 0.359 L in [9] and 0.45 L/kg in data set [1]. Further, in [6], the CL came out at 0.774 L/h. Moreover, the results for the clearance in data set [7] and in data set [10] were 2 mL/min/kg and 1.72 mL/min, respectively.
With `CC1(C)S[C@@H]2[C@H](NC(=O)[C@H](N)c3ccccc3)C(=O)N2[C@H]1C(=O)O` [AMPICILLIN], in data set [1], the Vd amounted to 0.3 L/kg.
